What was measured:
[1] = biological target: T1, alpha2C adrenergic receptor (Homo sapiens, UniProt P18825); experiment: Receptor Selection and Amplification Technology (RSAT) assay, alpha2C; format: cell-based; conditions: RSAT in NIH-3T3 cells; ratio of maximal effect of drug to that of standard full agonist brimonidine (UK14304); NA = not active at concentrations less than 10 micromolar
T1 construct: expressed in transfected cells; host or cells: NIH-3T3 cells
T1 sequence (P18825 1-462): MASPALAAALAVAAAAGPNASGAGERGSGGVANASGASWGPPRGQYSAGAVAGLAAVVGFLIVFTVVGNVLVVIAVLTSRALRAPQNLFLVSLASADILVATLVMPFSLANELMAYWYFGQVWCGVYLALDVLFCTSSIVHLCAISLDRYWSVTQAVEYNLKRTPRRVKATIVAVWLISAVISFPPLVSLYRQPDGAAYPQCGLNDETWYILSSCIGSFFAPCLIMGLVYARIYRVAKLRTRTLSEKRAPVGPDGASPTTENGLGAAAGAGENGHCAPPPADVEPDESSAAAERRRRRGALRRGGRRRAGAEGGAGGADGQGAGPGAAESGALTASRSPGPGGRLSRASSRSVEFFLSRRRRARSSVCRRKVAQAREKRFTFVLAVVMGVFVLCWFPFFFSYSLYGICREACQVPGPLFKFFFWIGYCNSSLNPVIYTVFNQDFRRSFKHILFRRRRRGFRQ
Excerpt: (§1) The imidazole-2-thione compounds of the invention are agonists of alpha2 adrenergic receptors. […] Al., 1995, Pharmacol. Toxicol. 76, pp. 308-311 (incorporated herein by reference) and is also described below. Another reference pertinent to this assay is Conklin et al. (1993) Nature 363:274-6, also incorporated herein by reference.
(§2) Receptor Selection and Amplification Technology (RSAT) Assay
(§3) The RSAT assay measures a receptor-mediated loss of contact inhibition that results in selective proliferation of receptor-containing cells in a mixed population of confluent cells. The increase in cell number is assessed with an appropriate transfected marker gene such as β-galactosidase, the activity of which can be easily measured in a 96-well format. Receptors that activate the G protein, Gq, elicit this response. Alpha2 receptors, which normally couple to Gi, activate the RSAT response when coexpressed with a hybrid Gq protein that has a Gi receptor recognition domain, called Gq/i5.
(§4) NIH-3T3 cells are plated at a density of 2×10^6 cells in 15 cm dishes and maintained in Dulbecco's modified Eagle's medium supplemented with 10% calf serum. One day later, cells are cotransfected by calcium phosphate precipitation with mammalian expression plasmids encoding p-SV-β-galactosidase (5-10 μg), receptor (1-2 μg) and G protein (1-2 μg). 40 μg salmon sperm DNA may also be included in the transfection mixture. […] After washing with phosphate-buffered saline, β-galactosidase enzyme activity is determined by adding 200 μl of the chromogenic substrate (consisting of 3.5 mM o-nitrophenyl-β-D-galactopyranoside and 0.5% nonidet P-40 in phosphate buffered saline), incubating overnight at 30° C. and measuring optical density at 420 nm. The absorbance is a measure of enzyme activity, which depends on cell number and reflects a receptor-mediated cell proliferation. The efficacy or intrinsic activity is calculated as a ratio of the maximal effect of the drug to the maximal effect of a standard full agonist for each receptor subtype. […]

[2] = biological target: T2, alpha2B adrenergic receptor (Homo sapiens, UniProt P18089); experiment: Receptor Selection and Amplification Technology (RSAT) assay, alpha2B; format: cell-based; conditions: RSAT in NIH-3T3 cells; ratio of maximal effect of drug to that of standard full agonist brimonidine (UK14304); NA = not active at concentrations less than 10 micromolar
T2 construct: expressed in transfected cells; host or cells: NIH-3T3 cells
T2 sequence (P18089 1-450): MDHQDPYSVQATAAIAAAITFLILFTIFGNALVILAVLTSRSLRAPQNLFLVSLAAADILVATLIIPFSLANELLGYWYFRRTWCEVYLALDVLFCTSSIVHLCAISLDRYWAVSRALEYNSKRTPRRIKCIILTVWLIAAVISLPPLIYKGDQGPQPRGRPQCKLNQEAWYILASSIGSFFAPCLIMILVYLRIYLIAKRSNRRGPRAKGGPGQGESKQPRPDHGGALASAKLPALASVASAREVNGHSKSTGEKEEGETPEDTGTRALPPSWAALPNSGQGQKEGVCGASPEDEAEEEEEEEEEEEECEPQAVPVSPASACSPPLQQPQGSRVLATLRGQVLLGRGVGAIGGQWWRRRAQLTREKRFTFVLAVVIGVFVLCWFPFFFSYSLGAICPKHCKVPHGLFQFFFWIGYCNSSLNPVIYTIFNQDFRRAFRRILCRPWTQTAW
Excerpt: as §1, §2, §3
NIH-3T3 cells are plated at a density of 2×10^6 cells in 15 cm dishes and maintained in Dulbecco's modified Eagle's medium supplemented with 10% calf serum. One day later, cells are cotransfected by calcium phosphate precipitation with mammalian expression plasmids encoding p-SV-β-galactosidase (5-10 μg), receptor (1-2 μg) and G protein (1-2 μg). 40 μg salmon sperm DNA may also be included in the transfection mixture. Fresh media is added on the following day and 1-2 days later, cells are harvested and frozen in 50 assay aliquots. Cells are thawed and 100 μl added to 100 μl aliquots of various concentrations of drugs in triplicate in 96-well dishes. Incubations continue 72-96 hr at 37° C. After washing with phosphate-buffered saline, β-galactosidase enzyme activity is determined by adding 200 μl of the chromogenic substrate (consisting of 3.5 mM o-nitrophenyl-β-D-galactopyranoside and 0.5% nonidet P-40 in phosphate buffered saline), incubating overnight at 30° C. and measuring optical density at 420 nm. The absorbance is a measure of enzyme activity, which depends on cell number and reflects a receptor-mediated cell proliferation. The efficacy or intrinsic activity is calculated as a ratio of the maximal effect of the drug to the maximal effect of a standard full agonist for each receptor subtype. […]
The RSAT assay measures a receptor-mediated loss of contact inhibition that results in selective proliferation of receptor-containing cells in a mixed population of confluent cells. The increase in cell number is assessed with an appropriate transfected marker gene such as ∃-galactosidase, the activity of which can be easily measured in a 96-well format. […]

[3] = test system: male Sprague-Dawley rats; experiment: Sedative activity (exploratory behavior/locomotor skills); format: in vivo, rat; conditions: intraperitoneally, up to a dose of 1 mg/kg, 30 minutes after injection
Method: To test sedation, six male Sprague-Dawley rats are given up to 3 mg/kg of the test compound in a saline or DMSO vehicle by intraperitoneal injection (i.p.). Sedation is graded 30 minutes following administration of the drug by monitoring locomotor skills as follows.
The Sprague-Dawley rats are weighed and 1 ml/kg body weight of an appropriate concentration (ie. 3 mg/ml for a final dose of 3 mg/kg) drug solution is injected intraperitoneally. Typically the test compound is formulated in approximately 10 to 50% DMSO. The results are compared to controls that are injected with 1 ml/kg saline or 10 to 50% DMSO. Rat activity is then determined 30 minutes after injection of the drug solution. Rats are placed in a dark covered chamber and a digicom analyzer (Omnitech Electronic) quantitates their exploratory behavior for a five-minute period. The machine records each time the rat interrupts an array of 32 photoelectric beams in the X and Y orientation.

[4] = biological target: T3, alpha2A adrenergic receptor (Homo sapiens, UniProt P08913); experiment: Receptor Selection and Amplification Technology (RSAT) assay, alpha2A; format: cell-based; conditions: RSAT in NIH-3T3 cells; ratio of maximal effect of drug to that of standard full agonist brimonidine (UK14304); NA = not active at concentrations less than 10 micromolar
T3 construct: expressed in transfected cells; host or cells: NIH-3T3 cells
T3 sequence (P08913 1-465): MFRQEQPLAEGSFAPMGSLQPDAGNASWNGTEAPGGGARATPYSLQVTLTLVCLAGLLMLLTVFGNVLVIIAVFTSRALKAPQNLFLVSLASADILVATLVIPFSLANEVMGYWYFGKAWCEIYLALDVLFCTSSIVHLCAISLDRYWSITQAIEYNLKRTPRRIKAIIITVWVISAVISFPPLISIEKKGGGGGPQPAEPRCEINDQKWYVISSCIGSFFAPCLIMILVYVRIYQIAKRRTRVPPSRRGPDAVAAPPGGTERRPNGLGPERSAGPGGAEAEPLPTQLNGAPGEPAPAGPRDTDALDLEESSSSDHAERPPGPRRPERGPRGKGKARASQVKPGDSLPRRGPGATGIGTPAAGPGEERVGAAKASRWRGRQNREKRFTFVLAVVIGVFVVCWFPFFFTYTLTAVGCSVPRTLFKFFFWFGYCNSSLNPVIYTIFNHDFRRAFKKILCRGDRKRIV
Excerpt: as §1, §2, §3, §4

SMILES	Intrinsic Activity Alpha 2C [1]	Intrinsic Activity Alpha 2B [2]	sedative effect [3]	Intrinsic Activity Alpha 2A [4]
CC(c1c[nH]c(=S)[nH]1)c1cccc(Cl)c1Cl (stereo not drawn) [Compound 1, 4-[1-(2,3-dichloro-phenyl)-ethyl]-1,3-dihydro-imidazole-2-thione]	1.03	0.85	no sedative effect	0.87
CC(c1c[nH]c(=S)[nH]1)c1cccc(F)c1F (stereo not drawn) [Compound 2, 4-[1-(2,3-difluoro-phenyl)-ethyl]-1,3-dihydro-imidazole-2-thione]	0.83	0.99		0.66
CC(c1c[nH]c(=S)[nH]1)c1cccc(C(F)(F)F)c1F (stereo not drawn) [Compound 3, 4-[1-(2-fluoro-3-trifluoromethyl-phenyl)-ethyl]-1,3-dihydro-imidazole-2-thione]	0.84	1.04	no sedative effect	0.88
CC(c1ccccc1)c1c[nH]c(=S)[nH]1 (stereo not drawn) [Compound 4, 4-(1-phenyl-ethyl)-1,3-dihydro-imidazole-2-thione]		1.11		

Reference: US7683089B1, “4-(Phenylmethyl and substituted phenylmethyl)-imidazole-2-thiones acting as specific alpha2 adrenergic agonists” (Allergan, Inc, priority 2004, dated 2010)
